Patent US11339171B2, “MDM2 inhibitors” (Gan & Lee Pharmaceuticals, priority 2017, dated 2022)

target: T1, MDM2 (Homo sapiens, UniProt Q00987); experiment: Inhibition test of MDM2-P53 (GST-MDM2, Biotin-P53, Anti-GST-Tb, SA-XL665); format: binding
T1 construct: made in house
How it was run: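 Binding was measured by TR-FRET with GST-MDM2 at 4 nM final in PBS with 0.1% BSA, 5 mM DTT and 1 mM AEBSF. Compounds were tested as twelve-point 5-fold dilutions and incubated with the detection mix for 90 min at 25 °C with shaking before plate-reader reading and curve fitting.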

T1 sequence (Q00987 whole entry): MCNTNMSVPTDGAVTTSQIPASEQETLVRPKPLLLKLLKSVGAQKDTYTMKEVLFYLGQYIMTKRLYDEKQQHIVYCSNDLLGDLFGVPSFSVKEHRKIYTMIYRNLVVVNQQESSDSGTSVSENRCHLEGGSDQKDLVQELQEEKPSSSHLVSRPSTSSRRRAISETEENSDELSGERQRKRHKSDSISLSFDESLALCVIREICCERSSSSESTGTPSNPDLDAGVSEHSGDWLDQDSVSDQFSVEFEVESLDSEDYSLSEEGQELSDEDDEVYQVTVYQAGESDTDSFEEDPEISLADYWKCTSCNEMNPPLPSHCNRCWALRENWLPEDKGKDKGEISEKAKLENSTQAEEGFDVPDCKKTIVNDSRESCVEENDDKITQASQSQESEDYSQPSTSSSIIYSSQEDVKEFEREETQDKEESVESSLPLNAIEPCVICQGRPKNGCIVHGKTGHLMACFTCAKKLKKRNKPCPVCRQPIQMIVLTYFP

| SMILES | IC50 [nM] |
| --- | --- |
| COc1ncc(-c2nc3c(n2C(C)C)[C@]2(C(=O)Nc4cc(Cl)ccc42)N(c2ccc(C#N)c(Cl)c2)C3=O)c(OC)n1 [Example R-158, (R)-2-chloro-4-(6-chloro-2′-(2,4-dimethoxypyrimidin-5-yl)-3′-isopropyl-2,6′-dioxo-3′,6′-dihydro-5′H-spiro[dihydroindole-3,4′-pyrrolo[3,4-d]imidazole]-5′-yl)benzonitrile] | 2200 |
| COc1ncc(-c2nc3c(n2C(C)C)[C@]2(C(=O)Nc4cc(Cl)ccc42)N(c2ccc(OC(F)(F)F)c(Cl)c2)C3=O)c(OC)n1 [Example R-161, (R)-6-chloro-5′-(3-chloro-4-(trifluoromethoxy)phenyl)-2′-(2,4-dimethoxypyrimidin-5-yl)-3′-isopropyl-3′H-spiro[dihydroindole-3,4′-pyrrolo[3,4-d]imidazole]-2,6′(5′H)-dione] | 126 |
| COc1cc(OCCF)ncc1-c1nc2c(n1C(C)C)[C@]1(C(=O)Nc3cc(Cl)ccc31)N(c1cc(Cl)ccc1C)C2=O [Example R-163, (R)-6-chloro-5′-(5-chloro-2-methylphenyl)-2′-(6-(2-fluoroethoxy)-4-methoxypyridin-3-yl)-3′-isopropyl-3′H-spiro[dihydroindole-3,4′-pyrrolo[3,4-d]imidazole]-2,6′(5′H)-dione] | 166 |
| COc1cc(C(C)C)ncc1-c1nc2c(n1C(C)C)[C@]1(C(=O)Nc3cc(Cl)ccc31)N(c1cc(Cl)ccc1C)C2=O [Example R-164, (R)-6-chloro-5′-(5-chloro-2-methylphenyl)-3′-isopropyl-2′-(6-isopropyl-4-methoxypyridin-3-yl)-3′H-spiro[dihydroindole-3,4′-pyrrolo[3,4-d]imidazole]-2,6′(5′H)-dione] | 592 |
| COc1cc(C(C)C)ncc1-c1nc2c(n1C(C)C)[C@]1(C(=O)Nc3cc(Cl)ccc31)N(c1cc(Cl)cnc1C)C2=O [Example R-166, (R)-6-chloro-5′-(5-chloro-2-methylpyridin-3-yl)-3′-isopropyl-2′-(6-isopropyl-4-methoxypyridin-3-yl)-3′H-spiro[dihydroindole-3,4′-pyrrolo[3,4-d]imidazole]-2,6′(5′H)-dione] | 957 |
| COc1nc(OCCF)ncc1-c1nc2c(n1C(C)C)[C@]1(C(=O)Nc3cc(Cl)ccc31)N(c1cc(Cl)cnc1C)C2=O [Example R-170, (R)-6-chloro-5′-(5-chloro-2-methylpyridin-3-yl)-2′-(2-(2-fluoroethoxy)-4-methoxypyrimidin-5-yl)-3′-isopropyl-3′H-spiro[dihydroindole-3,4′-pyrrolo[3,4-d]imidazole]-2,6′(5′H)-dione] | 235 |
| COc1nc(OCCF)ncc1-c1nc2c(n1C(C)C)[C@]1(C(=O)Nc3cc(Cl)ccc31)N(c1cccc(Cl)c1)C2=O [Example R-171, (R)-6-chloro-5′-(3-chlorophenyl)-2′-(2-(2-fluoroethoxy)-4-methoxypyrimidin-5-yl)-3′-isopropyl-3′H-spiro[dihydroindole-3,4′-pyrrolo[3,4-d]imidazole]-2,6′(5′H)-dione] | 8830 |
| COc1nc(C(C)C)ncc1-c1nc2c(n1C(C)C)[C@]1(C(=O)Nc3cc(Cl)ccc31)N(c1cc(Cl)ccc1C)C2=O [Example R-172, (R)-6-chloro-5′-(5-chloro-2-methylphenyl)-3′-isopropyl-2′-(2-isopropyl-4-methoxypyrimidin-5-yl)-3′H-spiro[dihydroindole-3,4′-pyrrolo[3,4-d]imidazole]-2,6′(5′H)-dione] | 408 |
| COc1cc(OCCF)ncc1-c1nc2c(n1C(C)C)[C@]1(C(=O)Nc3cc(Cl)ccc31)N(c1cc(Cl)cnc1C)C2=O [Example R-173, (R)-6-chloro-5′-(5-chloro-2-methylpyridin-3-yl)-2′-(6-(2-fluoroethoxy)-4-methoxypyridin-3-yl)-3′-isopropyl-3′H-spiro[dihydroindole-3,4′-pyrrolo[3,4-d]imidazole]-2,6′(5′H)-dione] | 528 |
| COc1nc(C2CC2)ncc1-c1nc2c(n1C(C)C)[C@]1(C(=O)Nc3cc(Cl)ccc31)N(c1cc(F)cc(Cl)c1)C2=O [Example R-174, (R)-6-chloro-5′-(3-chloro-5-fluorophenyl)-2′-(2-cyclopropyl-4-methoxypyrimidin-5-yl)-3′-isopropyl-3′H-spiro[dihydroindole-3,4′-pyrrolo[3,4-d]imidazole]-2,6′(5′H)-dione] | 515 |
| COc1cc(OC)c(-c2nc3c(n2C(C)C)[C@]2(C(=O)Nc4cc(Cl)ccc42)N(c2cc(F)cc(Cl)c2)C3=O)cn1 [Example R-175, (R)-6-chloro-5′-(3-chloro-5-fluorophenyl)-2′-(4,6-dimethoxypyridin-3-yl)-3′-isopropyl-3′H-spiro[dihydroindole-3,4′-pyrrolo[3,4-d]imidazole]-2,6′(5′H)-dione] | 522 |
| COc1cc(C2CC2)ncc1-c1nc2c(n1C(C)C)[C@]1(C(=O)Nc3cc(Cl)ccc31)N(c1cc(F)cc(Cl)c1)C2=O [Example R-176, (R)-6-chloro-5′-(3-chloro-5-fluorophenyl)-2′-(6-cyclopropyl-4-methoxypyridin-3-yl)-3′-isopropyl-3′H-spiro[dihydroindole-3,4′-pyrrolo[3,4-d]imidazole]-2,6′(5′H)-dione] | 321 |
| COc1ncc(-c2nc3c(n2C(C)C)[C@@]2(C(=O)Nc4cc(Cl)ccc42)N(c2ccc(OC)c(Cl)c2)C3=O)c(OC)n1 [Example S-48, (S)-6-chloro-5′-(3-chloro-4-methoxyphenyl)-2′-(2,4-dimethoxypyrimidin-5-yl)-3′-isopropyl-3′H-spiro[dihydroindole-3,4′-pyrrolo[3,4-d]imidazole]-2,6′(5′H)-dione] | 1.46 |
| COc1ncc(-c2nc3c(n2C(C)C)[C@@]2(C(=O)Nc4cc(Cl)ccc42)N(c2cc(C)ccc2C)C3=O)c(OC)n1 [Example S-56, (S)-6-chloro-2′-(2,4-dimethoxypyrimidin-5-yl)-5′-(2,5-dimethylphenyl)-3′-isopropyl-3′H-spiro[dihydroindole-3,4′-pyrrolo[3,4-d]imidazole]-2,6′(5′H)-dione] | 5.19 |
| COc1ncc(-c2nc3c(n2C(C)C)[C@@]2(C(=O)Nc4cc(Cl)ccc42)N(c2ccc(C(N)=O)c(Cl)c2)C3=O)c(OC)n1 [Example S-60, (S)-2-chloro-4-(6-chloro-2′-(2,4-dimethoxypyrimidin-5-yl)-3′-isopropyl-2,6′-dioxo-3′,6′-dihydro-5′H-spiro[dihydroindole-3,4′-pyrrolo[3,4-d]imidazole]-5′-yl)benzamide] | 4.81 |
| COc1cc(OC)c(-c2nc3c(n2C(C)C)[C@@]2(C(=O)Nc4cc(Cl)ccc42)N(c2ccc(C(N)=O)c(Cl)c2)C3=O)cn1 [Example S-65, (S)-2-chloro-4-(6-chloro-2′-(4,6-dimethoxypyridin-3-yl)-3′-isopropyl-2,6′-dioxo-3′,6′-dihydro-5′H-spiro[dihydroindole-3,4′-pyrrolo[3,4-d]imidazole]-5′-yl)benzamide] | 4.04 |
| COc1cc(C(C)C)ccc1-c1nc2c(n1C(C)C)[C@@]1(C(=O)Nc3cc(Cl)ccc31)N(c1cccc(Cl)c1)C2=O [Example S-93, (S)-6-chloro-5′-(3-chlorophenyl)-3′-isopropyl-2′-(4-isopropyl-2-methoxyphenyl)-3′H-spiro[dihydroindole-3,4′-pyrrolo[3,4-d]imidazole]-2,6′(5′H)-dione] | 3.89 |
